Results published in PubChem BioAssay (NCI).
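A five-concentration, 48-hour dose response in 96-well plates underlies each endpoint, interpolated linearly between surrounding concentrations. Definition used: TGI = concentration required for complete inhibition of growth.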

Columns and labels:
Assay in all cases: growth of human tumour cells (NCI), 48 h
HCT-15 colon = test system: HCT-15 colon
COLO 205 colon = test system: COLO 205 colon
OVCAR-3 ovarian = test system: OVCAR-3 ovarian
UACC-257 melanoma = test system: UACC-257 melanoma
ACHN renal = test system: ACHN renal
RXF 393 renal = test system: RXF 393 renal
MDA-MB-231 breast = test system: MDA-MB-231 breast
HCC-2998 colon = test system: HCC-2998 colon
NCI-H23 lung = test system: NCI-H23 lung
HT29 colon = test system: HT29 colon
NCI-H460 lung = test system: NCI-H460 lung
MOLT-4 leukemia = test system: MOLT-4 leukemia
HS 578T breast = test system: HS 578T breast
SF-295 CNS = test system: SF-295 CNS
UO-31 renal = test system: UO-31 renal
IGROV1 ovarian = test system: IGROV1 ovarian
NCI-H522 lung = test system: NCI-H522 lung
SNB-19 CNS = test system: SNB-19 CNS
M14 melanoma = test system: M14 melanoma
U251 CNS = test system: U251 CNS
DU-145 prostate = test system: DU-145 prostate
OVCAR-5 ovarian = test system: OVCAR-5 ovarian
EKVX NSCLC = test system: EKVX NSCLC
SF-268 CNS = test system: SF-268 CNS
MDA-N = test system: MDA-N
MCF7 breast = test system: MCF7 breast
KM12 colon = test system: KM12 colon
SK-OV-3 ovarian = test system: SK-OV-3 ovarian
SK-MEL-2 melanoma = test system: SK-MEL-2 melanoma
HL-60(TB) leukemia = test system: HL-60(TB) leukemia
MDA-MB-435 = test system: MDA-MB-435
A549 NSCLC = test system: A549 NSCLC
SR leukemia = test system: SR leukemia
HCT-116 colon = test system: HCT-116 colon
HOP-92 NSCLC = test system: HOP-92 NSCLC
PC-3 prostate = test system: PC-3 prostate
UACC-62 melanoma = test system: UACC-62 melanoma
CAKI-1 renal = test system: CAKI-1 renal
SK-MEL-5 melanoma = test system: SK-MEL-5 melanoma
K-562 leukemia = test system: K-562 leukemia
SNB-75 CNS = test system: SNB-75 CNS
SK-MEL-28 melanoma = test system: SK-MEL-28 melanoma
LOX IMVI melanoma = test system: LOX IMVI melanoma
T-47D breast = test system: T-47D breast
OVCAR-4 ovarian = test system: OVCAR-4 ovarian
CCRF-CEM leukemia = test system: CCRF-CEM leukemia
OVCAR-8 ovarian = test system: OVCAR-8 ovarian
SW-620 colon = test system: SW-620 colon
NCI/ADR-RES ovarian = test system: NCI/ADR-RES ovarian
SN12C renal = test system: SN12C renal
SF-539 CNS = test system: SF-539 CNS
RPMI-8226 leukemia = test system: RPMI-8226 leukemia
TK-10 renal = test system: TK-10 renal
786-0 renal = test system: 786-0 renal
MALME-3M melanoma = test system: MALME-3M melanoma
HOP-62 NSCLC = test system: HOP-62 NSCLC
A498 renal = test system: A498 renal
NCI-H226 lung = test system: NCI-H226 lung

Measured: TGI

CCOC(=O)C(NC(=O)CC)(Nc1ccccc1OC)C(F)(F)F (centres undefined)
not listed: 786-0 renal | MALME-3M melanoma | HOP-62 NSCLC | A498 renal | NCI-H226 lung
> 100 µM: all other assays above

CC(=O)c1c2c(cc3c1CC1(C3)Cc3cc4c(c(C(=O)O)c3C1)CCCC4)CCCC2 (centres undefined) (tested in a mixture with another compound)
40.6 µM: UO-31 renal
74.3 µM: UACC-257 melanoma
72.6 µM: U251 CNS
94.6 µM: CCRF-CEM leukemia
54.9 µM: HL-60(TB) leukemia
53.8 µM: SR leukemia
39.7 µM: HOP-92 NSCLC
89.3 µM: RPMI-8226 leukemia
44.6 µM: HOP-62 NSCLC
59.7 µM: KM12 colon
43.9 µM: MOLT-4 leukemia
93.6 µM: HCC-2998 colon
68.4 µM: COLO 205 colon
63.7 µM: SK-MEL-5 melanoma
48.7 µM: OVCAR-3 ovarian
60.5 µM: SK-MEL-2 melanoma
53.6 µM: NCI-H460 lung
96.2 µM: M14 melanoma
72.4 µM: HCT-116 colon
not listed: RXF 393 renal | MDA-MB-231 breast | SF-539 CNS | A498 renal | NCI-H226 lung
> 100 µM: all other assays above

N#Cc1nc(C(O)c2ccccc2)oc1N (centres undefined)
not listed: HCT-15 colon | HCC-2998 colon | NCI-H460 lung | MDA-MB-435 | SR leukemia | OVCAR-4 ovarian
> 100 µM: all other assays above

c1ccc2c(c1)CCN2CCN1CCc2ccccc21
not listed: MALME-3M melanoma | A498 renal
> 10 µM: all other assays above

Cc1cc2c3ccccc3nc2c2cc[nH]c(C)c12
36.5 µM: OVCAR-5 ovarian | SNB-75 CNS
23.3 µM: SK-MEL-2 melanoma
> 64.7 µM: HOP-62 NSCLC
20 µM: RPMI-8226 leukemia
3.45 µM: MDA-MB-435
29.8 µM: DU-145 prostate
> 31.6 µM: NCI-H23 lung | KM12 colon
4.49 µM: NCI-H522 lung
31.6 µM: OVCAR-8 ovarian
27.9 µM: UACC-62 melanoma
49.9 µM: HOP-92 NSCLC
> 80.6 µM: HT29 colon
51 µM: CAKI-1 renal
46.9 µM: UACC-257 melanoma
50.8 µM: A549 NSCLC
48.9 µM: SNB-19 CNS
> 55.9 µM: IGROV1 ovarian
3.06 µM: 786-0 renal
37.6 µM: TK-10 renal
45.1 µM: UO-31 renal
22.1 µM: MOLT-4 leukemia
> 74.8 µM: SR leukemia
3.59 µM: K-562 leukemia
> 70.7 µM: EKVX NSCLC
4.31 µM: COLO 205 colon
6.67 µM: HCC-2998 colon
18.5 µM: SN12C renal
4.23 µM: HL-60(TB) leukemia
4.89 µM: LOX IMVI melanoma
6.87 µM: SW-620 colon
28.2 µM: NCI-H226 lung
17.1 µM: MDA-MB-231 breast
3.42 µM: M14 melanoma
49.6 µM: SK-OV-3 ovarian
3.3 µM: MDA-N | SK-MEL-28 melanoma
28.8 µM: MALME-3M melanoma
> 65.5 µM: HS 578T breast
> 85.5 µM: PC-3 prostate
4.77 µM: CCRF-CEM leukemia
52.4 µM: ACHN renal
> 35.4 µM: OVCAR-3 ovarian
20.2 µM: SK-MEL-5 melanoma
5.62 µM: U251 CNS
38.9 µM: T-47D breast
> 88.5 µM: SF-295 CNS
11.4 µM: SF-539 CNS
31.2 µM: SF-268 CNS
7.59 µM: HCT-15 colon
3.57 µM: HCT-116 colon
> 100 µM: MCF7 breast | OVCAR-4 ovarian | NCI/ADR-RES ovarian
